# Where two headings read alike, the source gives them in different places. Positions of bridges follow the written chain, without caps; N, C: chain ends. Non-standard residues stand in square brackets, D forms with d. Residues, ends and D or L forms follow the SMILES beside them. Sar = CNCC(=O)O
# Tests used:
# [1] = system: classical complement pathway; experiment: In vitro haemolysis assay (inhibition of classical complement pathway); type: cell-based, human; conditions: human serum, sensitized sheep red blood cells
# Outline: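 Compound dilutions preincubated 15 min at room temperature with diluted human serum (titrated per batch for 70-90% maximal haemolysis), then antibody-sensitized sheep RBC (10^7/well) added for 30 min at 37 °C in Tris/casein buffer, pH 7.4. Stopped with EDTA; haemolysis read at 405 nm; IC50 by 4PL fit.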
# [2] = Solubility test at 10 mg/mL (visual inspection and light scattering); type: physicochemical
# Protocol: The solubility of compounds was assessed by measuring light scattering over a pH interval from pH 4 to pH 7.5.
# Compounds were dissolved in a stock solution of 20 mg/mL in H2O at pH 2.5 or pH 10. These stock solutions were diluted 1:1 with 200 mM buffered solution to reach a final solution of 10 mg/mL compound in 100 mM buffer. The 5 investigated conditions were (1) acetate pH 4.0, (2) acetate pH 5.0, (3) phosphate pH 6.0, (4) phosphate pH 7 and (5) phosphate pH 7.5.
# Visual inspection included manually checking the 96 well plate for wells that are clear or non-clear. In addition to this a picture of the 96 well plate is taken.
# Absorbance was measured at four wavelengths: 280 nm, 325 nm, 340 nm and 360 nm in an UV transparent 96 well microplate in a SpectraMax 190 microplate reader (Molecular Devices).
# The criteria for this was a combination of visual inspection and light scattering not exceeding 0.1 AU, where values below 0.1 AU are good in visually clear samples.
# [3] = Table 3, given as upper bounds, read-out: IC50, inhibition of hemolysis
# [4] = Table 4, valine 3 vs isoleucine 3 pairs, read-out: CP hemolysis IC50
SMILES,"IC50 [1, 3]","IC50 [1, 4]","Solubility, Condition 1 ([2]; Acetate pH 4)","Solubility, Condition 2 ([2]; Acetate pH 5)","Solubility, Condition 3 ([2]; Phosphate pH 6)","Solubility, Condition 4 ([2]; Phosphate pH 7)","Solubility, condition 4 ([2]; Phosphate pH 7)","Solubility, Condition 5 ([2]; Phosphate pH 7.5)","Solubility, condition 5 ([2]; Phosphate pH 7.5)","Solubility, Condition 1 ([2]; acetate pH 4.0, visual inspection and absorbance)","Solubility, Condition 2 ([2]; acetate pH 5.0, visual inspection and absorbance)","Solubility, Condition 3 ([2]; phosphate pH 6.0, visual inspection and absorbance)"
CC[C@H](C)[C@H](NC(C)=O)C(=O)N[C@H]1CSSC[C@@H](C(=O)N[C@H](C(=O)N[C@@H](CCC(=O)O)C(=O)NCC(=O)N[C@@H](CCC(=O)O)C(N)=O)[C@@H](C)O)NC(=O)[C@H](CCCNC(=N)N)NC(=O)[C@H](Cc2c[nH]cn2)NC(=O)[C@H](CCC(=O)O)NC(=O)CNC(=O)[C@H](Cc2c[nH]c3ccccc23)NC(=O)[C@H](CC(=O)O)NC(=O)[C@H](CCC(N)=O)NC(=O)[C@H](Cc2c[nH]c3ccccc23)NC(=O)[C@H]([C@@H](C)CC)NC1=O [Compound 24] (Ac-ICIWQDWGEHRCTEGE-NH2; disulfide 2-12),< 0.1 µM,0.09 µM,"− (“−” denotes lack of solubility at the given condition, as UV absorbance at 340 nm exceeds 0.1 AU and/or it is visibly turbid or contains particles)","− (“−” denotes lack of solubility at the given condition, as UV absorbance at 340 nm exceeds 0.1 AU and/or it is visibly turbid or contains particles)","− (“−” denotes lack of solubility at the given condition, as UV absorbance at 340 nm exceeds 0.1 AU and/or it is visibly turbid or contains particles)","+ (“+” denotes solubility at the given condition, as determined by UV absorbance being less than 0.1 AU at 340 nm and the sample being clear when manually inspected)",good,"+ (“+” denotes solubility at the given condition, as determined by UV absorbance being less than 0.1 AU at 340 nm and the sample being clear when manually inspected)",good,cloudy,cloudy,cloudy
CC[C@H](C)[C@H](NC(C)=O)C(=O)N[C@H]1CSSC[C@@H](C(=O)N[C@H](C(=O)N[C@@H](CCC(=O)O)C(=O)N[C@@H](C)C(N)=O)[C@@H](C)O)NC(=O)[C@H](CCCNC(=N)N)NC(=O)[C@H](Cc2c[nH]cn2)NC(=O)[C@H](CCC(=O)O)NC(=O)CNC(=O)[C@H](Cc2c[nH]c3ccccc23)NC(=O)[C@H](CC(=O)O)NC(=O)[C@H](CCC(N)=O)NC(=O)[C@H](Cc2c[nH]c3ccccc23)NC(=O)[C@H]([C@@H](C)CC)NC1=O [Compound 25] (Ac-ICIWQDWGEHRCTEA-NH2; disulfide 2-12),< 0.1 µM,–,"+ (“+” denotes solubility at the given condition, as determined by UV absorbance being less than 0.1 AU at 340 nm and the sample being clear when manually inspected)","− (“−” denotes lack of solubility at the given condition, as UV absorbance at 340 nm exceeds 0.1 AU and/or it is visibly turbid or contains particles)","− (“−” denotes lack of solubility at the given condition, as UV absorbance at 340 nm exceeds 0.1 AU and/or it is visibly turbid or contains particles)","+ (“+” denotes solubility at the given condition, as determined by UV absorbance being less than 0.1 AU at 340 nm and the sample being clear when manually inspected)",–,"+ (“+” denotes solubility at the given condition, as determined by UV absorbance being less than 0.1 AU at 340 nm and the sample being clear when manually inspected)",–,–,–,–
CC[C@H](C)[C@H](NC(C)=O)C(=O)N[C@H]1CSSC[C@@H](C(=O)N[C@@H](CCC(=O)O)C(=O)NCC(=O)N[C@@H](CCC(=O)O)C(N)=O)NC(=O)[C@H](CCCNC(=N)N)NC(=O)[C@H](Cc2c[nH]cn2)NC(=O)[C@H](CCC(=O)O)NC(=O)CNC(=O)[C@H](Cc2c[nH]c3ccccc23)NC(=O)[C@H](CC(=O)O)NC(=O)[C@H](CCC(N)=O)NC(=O)[C@H](Cc2c[nH]c3ccccc23)NC(=O)[C@H]([C@@H](C)CC)NC1=O [Compound 27] (Ac-ICIWQDWGEHRCEGE-NH2; disulfide 2-12),< 0.1 µM,–,"− (“−” denotes lack of solubility at the given condition, as UV absorbance at 340 nm exceeds 0.1 AU and/or it is visibly turbid or contains particles)","− (“−” denotes lack of solubility at the given condition, as UV absorbance at 340 nm exceeds 0.1 AU and/or it is visibly turbid or contains particles)","− (“−” denotes lack of solubility at the given condition, as UV absorbance at 340 nm exceeds 0.1 AU and/or it is visibly turbid or contains particles)","+ (“+” denotes solubility at the given condition, as determined by UV absorbance being less than 0.1 AU at 340 nm and the sample being clear when manually inspected)",–,"+ (“+” denotes solubility at the given condition, as determined by UV absorbance being less than 0.1 AU at 340 nm and the sample being clear when manually inspected)",–,–,–,–
CC[C@H](C)[C@H](NC(=O)[C@H](C)NC(=O)[C@H](CO)NC(=O)CNC(=O)[C@H](CCC(=O)O)NC(C)=O)C(=O)N[C@H]1CSSC[C@@H](C(=O)N(C)CC(=O)N[C@@H](CCC(=O)O)C(N)=O)NC(=O)[C@H](CCCNC(=N)N)NC(=O)[C@H](Cc2c[nH]cn2)NC(=O)[C@H](CCC(=O)O)NC(=O)CNC(=O)[C@H](Cc2c[nH]c3ccccc23)NC(=O)[C@H](CC(=O)O)NC(=O)[C@H](CCC(N)=O)NC(=O)[C@H](Cc2c[nH]c3ccccc23)NC(=O)[C@H]([C@@H](C)CC)NC1=O [Compound 28] (Ac-EGSAICIWQDWGEHRC[Sar]E-NH2; disulfide 6-16),< 0.1 µM,0.088 µM,"+ (“+” denotes solubility at the given condition, as determined by UV absorbance being less than 0.1 AU at 340 nm and the sample being clear when manually inspected)","+ (“+” denotes solubility at the given condition, as determined by UV absorbance being less than 0.1 AU at 340 nm and the sample being clear when manually inspected)","+ (“+” denotes solubility at the given condition, as determined by UV absorbance being less than 0.1 AU at 340 nm and the sample being clear when manually inspected)","+ (“+” denotes solubility at the given condition, as determined by UV absorbance being less than 0.1 AU at 340 nm and the sample being clear when manually inspected)",–,"+ (“+” denotes solubility at the given condition, as determined by UV absorbance being less than 0.1 AU at 340 nm and the sample being clear when manually inspected)",–,–,–,–
CC[C@H](C)[C@@H]1NC(=O)[C@@H](NC(=O)[C@@H](NC(=O)[C@H](CCC(=O)O)NC(=O)CNC(=O)[C@H](CCC(=O)O)NC(C)=O)[C@@H](C)CC)CSSC[C@@H](C(=O)N[C@H](C(N)=O)[C@@H](C)O)NC(=O)[C@H](CCCNC(=N)N)NC(=O)[C@H](Cc2c[nH]cn2)NC(=O)[C@H](CCC(=O)O)NC(=O)CNC(=O)[C@H](Cc2c[nH]c3ccccc23)NC(=O)[C@H](CC(=O)O)NC(=O)[C@H](CCC(N)=O)NC(=O)[C@H](Cc2c[nH]c3ccccc23)NC1=O [Compound 30] (Ac-EGEICIWQDWGEHRCT-NH2; disulfide 5-15),< 0.1 µM,–,"− (“−” denotes lack of solubility at the given condition, as UV absorbance at 340 nm exceeds 0.1 AU and/or it is visibly turbid or contains particles)","− (“−” denotes lack of solubility at the given condition, as UV absorbance at 340 nm exceeds 0.1 AU and/or it is visibly turbid or contains particles)",–,"+ (“+” denotes solubility at the given condition, as determined by UV absorbance being less than 0.1 AU at 340 nm and the sample being clear when manually inspected)",–,"+ (“+” denotes solubility at the given condition, as determined by UV absorbance being less than 0.1 AU at 340 nm and the sample being clear when manually inspected)",–,–,–,–
CC[C@H](C)[C@@H]1NC(=O)[C@@H](NC(=O)[C@@H](NC(=O)[C@H](CCC(=O)O)NC(=O)[C@H](CO)NC(=O)[C@H](CCC(=O)O)NC(C)=O)[C@@H](C)CC)CSSC[C@@H](C(=O)N[C@H](C(N)=O)[C@@H](C)O)NC(=O)[C@H](CCCNC(=N)N)NC(=O)[C@H](Cc2c[nH]cn2)NC(=O)[C@H](CCC(=O)O)NC(=O)CNC(=O)[C@H](Cc2c[nH]c3ccccc23)NC(=O)[C@H](CC(=O)O)NC(=O)[C@H](CCC(N)=O)NC(=O)[C@H](Cc2c[nH]c3ccccc23)NC1=O [Compound 31] (Ac-ESEICIWQDWGEHRCT-NH2; disulfide 5-15),< 0.1 µM,–,"+ (“+” denotes solubility at the given condition, as determined by UV absorbance being less than 0.1 AU at 340 nm and the sample being clear when manually inspected)","+ (“+” denotes solubility at the given condition, as determined by UV absorbance being less than 0.1 AU at 340 nm and the sample being clear when manually inspected)","+ (“+” denotes solubility at the given condition, as determined by UV absorbance being less than 0.1 AU at 340 nm and the sample being clear when manually inspected)","+ (“+” denotes solubility at the given condition, as determined by UV absorbance being less than 0.1 AU at 340 nm and the sample being clear when manually inspected)",–,"+ (“+” denotes solubility at the given condition, as determined by UV absorbance being less than 0.1 AU at 340 nm and the sample being clear when manually inspected)",–,–,–,–
